Data taken from the kinase profiling compilation of Christmann-Franck et al. (2016).

Tests used:
Test in all cases: radiometric filter-binding kinase assay
ABL1 (human) = ABL1 (human) (UniProt P00519); details: compound 100.0 µM; ATP 5 µM
[1] = system: AKT2 (human), P31751 [S474D]; details: compound 100.0 µM; ATP 50 µM
AURKA (human) = AURKA (human) (UniProt O14965); details: compound 100.0 µM; ATP 5 µM
AURKB (human) = AURKB (human) (UniProt Q96GD4); details: compound 100.0 µM; ATP 20 µM
BRSK1 (human) = BRSK1 (human) (UniProt Q8TDC3); details: compound 100.0 µM; ATP 20 µM
CHEK1 (human) = CHEK1 (human) (UniProt O14757); details: compound 100.0 µM; ATP 20 µM
CHEK2 (human) = CHEK2 (human) (UniProt O96017); details: compound 100.0 µM; ATP 20 µM
CSNK2A1 (human) = CSNK2A1 (human) (UniProt P68400); details: compound 100.0 µM; ATP 5 µM
DYRK2 (human) = DYRK2 (human) (UniProt Q92630); details: compound 100.0 µM; ATP 50 µM
FGFR1 (human) = FGFR1 (human) (UniProt P11362); details: compound 100.0 µM; ATP 20 µM
FLT1 (human) = FLT1 (human) (UniProt P17948); details: compound 100.0 µM; ATP 20 µM
GCK (human) = GCK (human) (UniProt Q12851); details: compound 100.0 µM; ATP 20 µM
IRAK4 (human) = IRAK4 (human) (UniProt Q9NWZ3); details: compound 100.0 µM; ATP 20 µM
JAK2 JH1 JH2 (human) = JAK2 JH1 JH2 (human) (UniProt O60674); details: compound 100.0 µM; ATP 5 µM
MAP2K1 (human) = MAP2K1 (human) (UniProt Q02750); details: compound 100.0 µM; ATP 5 µM
MAP2K2 (human) = MAP2K2 (human) (UniProt P36507); details: compound 100.0 µM; ATP 5 µM
MAP3K9 (human) = MAP3K9 (human) (UniProt P80192); details: compound 100.0 µM; ATP 20 µM
MAPK13 (human) = MAPK13 (human) (UniProt O15264); details: compound 100.0 µM; ATP 5 µM
MAPK14 (human) = MAPK14 (human) (UniProt Q16539); details: compound 100.0 µM; ATP 50 µM
MAPK15 (human) = MAPK15 (human) (UniProt Q8TD08); details: compound 100.0 µM; ATP 5 µM
MAPK3 (human) = MAPK3 (human) (UniProt P27361); details: compound 100.0 µM; ATP 5 µM
MAPK9 (human) = MAPK9 (human) (UniProt P45984); details: compound 100.0 µM; ATP 20 µM
MAPKAPK3 (human) = MAPKAPK3 (human) (UniProt Q16644); details: compound 100.0 µM; ATP 20 µM
MARK1 (human) = MARK1 (human) (UniProt Q9P0L2); details: compound 100.0 µM; ATP 20 µM
MARK4 (human) = MARK4 (human) (UniProt Q96L34); details: compound 100.0 µM; ATP 50 µM
PAK6 (human) = PAK6 (human) (UniProt Q9NQU5); details: compound 100.0 µM; ATP 20 µM
PAK7 (human) = PAK7 (human) (UniProt Q9P286); details: compound 100.0 µM; ATP 20 µM
PDPK1 (human) = PDPK1 (human) (UniProt O15530); details: compound 100.0 µM
PHKG1 (human) = PHKG1 (human) (UniProt Q16816); details: compound 100.0 µM; ATP 50 µM
PIM1 (human) = PIM1 (human) (UniProt P11309); details: compound 100.0 µM; ATP 20 µM
PIM3 (human) = PIM3 (human) (UniProt Q86V86); details: compound 100.0 µM; ATP 20 µM
PLK1 (human) = PLK1 (human) (UniProt P53350); details: compound 100.0 µM; ATP 5 µM
PTK6 (human) = PTK6 (human) (UniProt Q13882); details: compound 100.0 µM; ATP 20 µM
RIPK2 (human) = RIPK2 (human) (UniProt O43353); details: compound 100.0 µM; ATP 20 µM
[2] = system: RPS6KB1 (human), P23443 [T412E]; details: compound 100.0 µM; ATP 20 µM
[3] = system: SGK1 (human), O00141 [S422D]; details: compound 100.0 µM; ATP 20 µM
SRPK1 (human) = SRPK1 (human) (UniProt Q96SB4); details: compound 100.0 µM; ATP 50 µM
STK16 (human) = STK16 (human) (UniProt O75716); details: compound 100.0 µM; ATP 50 µM
TBK1 (human) = TBK1 (human) (UniProt Q9UHD2); details: compound 100.0 µM; ATP 50 µM
TTK (human) = TTK (human) (UniProt P33981); details: compound 100.0 µM; ATP 20 µM

Sequence of MAPKAPK3 (human) (Q16644 whole entry, looked up): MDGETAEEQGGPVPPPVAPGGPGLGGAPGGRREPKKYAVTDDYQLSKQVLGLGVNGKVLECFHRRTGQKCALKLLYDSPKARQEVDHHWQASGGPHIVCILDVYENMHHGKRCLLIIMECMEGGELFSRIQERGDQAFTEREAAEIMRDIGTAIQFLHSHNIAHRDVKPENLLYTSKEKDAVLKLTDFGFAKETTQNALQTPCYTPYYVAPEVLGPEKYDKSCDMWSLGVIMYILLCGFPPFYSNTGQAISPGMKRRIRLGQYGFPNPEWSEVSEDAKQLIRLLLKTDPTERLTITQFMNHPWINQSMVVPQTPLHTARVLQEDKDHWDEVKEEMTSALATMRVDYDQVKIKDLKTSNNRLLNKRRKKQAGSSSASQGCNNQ
Sequence of PAK7 (human) (Q9P286 whole entry, looked up): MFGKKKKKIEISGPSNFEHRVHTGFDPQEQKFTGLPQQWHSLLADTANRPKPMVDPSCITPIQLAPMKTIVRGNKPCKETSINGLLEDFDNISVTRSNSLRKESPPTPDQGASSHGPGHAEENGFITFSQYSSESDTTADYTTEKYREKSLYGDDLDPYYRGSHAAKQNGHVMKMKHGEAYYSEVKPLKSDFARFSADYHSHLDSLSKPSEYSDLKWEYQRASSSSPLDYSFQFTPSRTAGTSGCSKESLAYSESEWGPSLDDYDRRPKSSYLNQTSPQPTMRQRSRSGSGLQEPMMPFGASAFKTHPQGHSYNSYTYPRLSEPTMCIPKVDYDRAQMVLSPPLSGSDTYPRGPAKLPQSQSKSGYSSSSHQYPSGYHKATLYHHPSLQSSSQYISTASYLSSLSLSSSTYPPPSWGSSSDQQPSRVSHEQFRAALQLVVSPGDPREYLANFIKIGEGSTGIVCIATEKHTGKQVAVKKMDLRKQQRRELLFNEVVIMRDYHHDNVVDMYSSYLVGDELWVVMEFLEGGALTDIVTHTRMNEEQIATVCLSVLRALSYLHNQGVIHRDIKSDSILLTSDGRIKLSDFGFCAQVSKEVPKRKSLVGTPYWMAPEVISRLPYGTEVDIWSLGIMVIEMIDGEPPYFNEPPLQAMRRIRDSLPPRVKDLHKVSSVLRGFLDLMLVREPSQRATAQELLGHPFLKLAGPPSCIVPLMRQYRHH
Sequence of MAP3K9 (human) (P80192 whole entry, looked up): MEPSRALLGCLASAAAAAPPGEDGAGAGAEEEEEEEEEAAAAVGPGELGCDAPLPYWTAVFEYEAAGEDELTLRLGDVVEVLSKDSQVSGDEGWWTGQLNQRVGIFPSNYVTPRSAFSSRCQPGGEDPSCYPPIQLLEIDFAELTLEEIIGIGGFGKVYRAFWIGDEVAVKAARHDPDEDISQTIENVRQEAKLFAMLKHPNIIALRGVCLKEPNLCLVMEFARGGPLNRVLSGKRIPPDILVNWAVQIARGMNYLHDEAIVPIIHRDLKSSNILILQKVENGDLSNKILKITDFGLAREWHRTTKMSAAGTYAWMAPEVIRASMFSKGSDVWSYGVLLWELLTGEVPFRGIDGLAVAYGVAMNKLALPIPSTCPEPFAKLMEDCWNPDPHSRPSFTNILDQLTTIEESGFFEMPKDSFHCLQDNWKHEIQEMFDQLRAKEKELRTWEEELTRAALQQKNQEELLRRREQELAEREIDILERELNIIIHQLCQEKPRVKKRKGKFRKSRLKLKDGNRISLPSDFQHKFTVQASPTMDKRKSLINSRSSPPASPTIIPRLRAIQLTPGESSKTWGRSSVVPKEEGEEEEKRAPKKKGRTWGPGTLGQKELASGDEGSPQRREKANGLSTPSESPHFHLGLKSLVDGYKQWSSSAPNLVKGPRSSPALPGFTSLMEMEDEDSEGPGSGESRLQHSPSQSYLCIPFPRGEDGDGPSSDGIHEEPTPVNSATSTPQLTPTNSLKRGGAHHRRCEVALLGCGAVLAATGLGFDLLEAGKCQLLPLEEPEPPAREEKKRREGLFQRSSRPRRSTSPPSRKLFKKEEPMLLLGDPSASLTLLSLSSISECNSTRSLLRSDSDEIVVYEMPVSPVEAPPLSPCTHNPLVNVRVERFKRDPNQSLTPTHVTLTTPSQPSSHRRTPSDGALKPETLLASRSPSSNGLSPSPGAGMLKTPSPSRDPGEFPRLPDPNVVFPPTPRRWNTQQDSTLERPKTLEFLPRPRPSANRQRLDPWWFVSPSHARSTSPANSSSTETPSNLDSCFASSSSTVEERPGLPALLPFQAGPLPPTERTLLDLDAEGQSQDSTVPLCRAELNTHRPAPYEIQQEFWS
Sequence of PDPK1 (human) (O15530 whole entry, looked up): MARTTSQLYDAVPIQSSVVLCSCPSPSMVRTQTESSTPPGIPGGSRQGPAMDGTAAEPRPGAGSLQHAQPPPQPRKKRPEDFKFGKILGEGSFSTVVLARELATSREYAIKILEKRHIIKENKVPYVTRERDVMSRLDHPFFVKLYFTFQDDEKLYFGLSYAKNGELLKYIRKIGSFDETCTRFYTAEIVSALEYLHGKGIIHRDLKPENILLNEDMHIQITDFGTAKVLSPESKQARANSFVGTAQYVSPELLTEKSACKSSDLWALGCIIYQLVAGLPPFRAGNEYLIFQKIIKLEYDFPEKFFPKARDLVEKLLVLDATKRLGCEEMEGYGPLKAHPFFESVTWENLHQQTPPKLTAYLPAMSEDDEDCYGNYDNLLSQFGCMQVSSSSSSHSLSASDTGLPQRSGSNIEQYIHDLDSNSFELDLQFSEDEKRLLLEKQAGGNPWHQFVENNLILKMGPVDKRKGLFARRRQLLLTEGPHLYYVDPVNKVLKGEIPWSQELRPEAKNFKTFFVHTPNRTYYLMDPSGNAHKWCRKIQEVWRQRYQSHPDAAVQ
Sequence of MAPK14 (human) (Q16539 whole entry, looked up): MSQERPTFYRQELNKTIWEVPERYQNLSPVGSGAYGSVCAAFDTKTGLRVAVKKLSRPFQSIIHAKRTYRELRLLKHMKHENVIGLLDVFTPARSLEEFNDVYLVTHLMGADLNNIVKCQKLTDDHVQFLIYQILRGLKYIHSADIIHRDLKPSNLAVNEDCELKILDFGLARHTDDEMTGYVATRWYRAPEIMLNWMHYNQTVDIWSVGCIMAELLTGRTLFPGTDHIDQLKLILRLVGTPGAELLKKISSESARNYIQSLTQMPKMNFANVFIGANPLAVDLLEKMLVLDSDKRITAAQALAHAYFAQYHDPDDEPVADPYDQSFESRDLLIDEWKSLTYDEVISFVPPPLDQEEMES
Sequence of AKT2 (human), P31751 [S474D] (P31751 whole entry S474D, looked up): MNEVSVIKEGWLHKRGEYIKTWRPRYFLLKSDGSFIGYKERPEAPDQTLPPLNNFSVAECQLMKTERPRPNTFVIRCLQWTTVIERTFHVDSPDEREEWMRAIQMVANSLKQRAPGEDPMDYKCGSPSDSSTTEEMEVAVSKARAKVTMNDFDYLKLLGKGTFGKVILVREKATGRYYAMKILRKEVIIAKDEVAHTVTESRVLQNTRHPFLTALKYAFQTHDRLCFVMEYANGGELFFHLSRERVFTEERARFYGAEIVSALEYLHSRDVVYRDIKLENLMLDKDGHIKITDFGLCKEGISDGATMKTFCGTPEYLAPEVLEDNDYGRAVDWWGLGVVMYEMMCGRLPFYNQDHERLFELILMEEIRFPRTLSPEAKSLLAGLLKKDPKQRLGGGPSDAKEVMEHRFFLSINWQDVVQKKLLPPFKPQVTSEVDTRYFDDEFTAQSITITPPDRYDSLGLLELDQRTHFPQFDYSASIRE
Sequence of JAK2 JH1 JH2 (human) (O60674 whole entry, looked up): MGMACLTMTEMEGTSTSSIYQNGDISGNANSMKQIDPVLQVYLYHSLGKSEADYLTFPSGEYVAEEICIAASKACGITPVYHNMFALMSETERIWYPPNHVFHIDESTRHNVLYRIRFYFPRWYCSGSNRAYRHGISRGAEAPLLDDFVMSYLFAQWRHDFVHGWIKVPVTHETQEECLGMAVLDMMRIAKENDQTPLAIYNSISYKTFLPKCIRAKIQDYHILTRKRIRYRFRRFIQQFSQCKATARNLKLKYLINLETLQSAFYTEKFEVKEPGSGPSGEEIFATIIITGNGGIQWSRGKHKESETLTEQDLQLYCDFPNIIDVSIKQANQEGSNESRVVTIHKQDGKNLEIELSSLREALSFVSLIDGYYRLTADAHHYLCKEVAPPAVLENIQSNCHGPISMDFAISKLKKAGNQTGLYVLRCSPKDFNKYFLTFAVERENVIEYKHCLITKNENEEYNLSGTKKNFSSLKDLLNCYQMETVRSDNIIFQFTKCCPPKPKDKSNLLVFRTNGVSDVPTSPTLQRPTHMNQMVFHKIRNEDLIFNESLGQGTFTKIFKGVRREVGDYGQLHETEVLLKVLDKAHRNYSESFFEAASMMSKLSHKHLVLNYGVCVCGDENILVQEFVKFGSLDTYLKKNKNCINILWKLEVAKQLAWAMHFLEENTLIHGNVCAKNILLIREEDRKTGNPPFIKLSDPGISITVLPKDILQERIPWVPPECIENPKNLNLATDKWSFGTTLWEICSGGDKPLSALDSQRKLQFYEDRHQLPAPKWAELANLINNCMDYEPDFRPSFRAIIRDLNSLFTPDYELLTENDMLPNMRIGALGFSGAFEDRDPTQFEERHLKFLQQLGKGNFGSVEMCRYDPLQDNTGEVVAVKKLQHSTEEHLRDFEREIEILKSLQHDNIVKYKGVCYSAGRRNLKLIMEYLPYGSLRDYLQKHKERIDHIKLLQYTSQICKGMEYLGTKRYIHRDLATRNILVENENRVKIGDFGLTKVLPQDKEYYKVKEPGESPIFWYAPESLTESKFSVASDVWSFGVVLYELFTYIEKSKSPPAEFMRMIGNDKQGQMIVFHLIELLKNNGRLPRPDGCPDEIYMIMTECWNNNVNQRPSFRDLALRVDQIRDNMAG
Sequence of STK16 (human) (O75716 whole entry, looked up): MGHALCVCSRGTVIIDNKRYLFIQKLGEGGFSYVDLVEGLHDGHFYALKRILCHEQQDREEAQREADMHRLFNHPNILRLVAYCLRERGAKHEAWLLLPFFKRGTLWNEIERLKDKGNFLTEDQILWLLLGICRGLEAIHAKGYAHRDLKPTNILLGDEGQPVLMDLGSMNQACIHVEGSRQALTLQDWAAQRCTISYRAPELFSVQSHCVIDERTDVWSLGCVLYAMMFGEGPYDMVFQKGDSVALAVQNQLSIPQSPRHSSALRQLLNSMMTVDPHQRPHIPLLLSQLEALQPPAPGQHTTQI

COc1ccc(NC(=S)Nc2cnc3[nH]cnn3c2=O)cn1
inhibition (ABL1 (human)): 5% | inhibition [1]: 41% | inhibition (AURKA (human)): 23% | inhibition (AURKB (human)): 0% | inhibition (BRSK1 (human)): 10% | inhibition (CHEK1 (human)): 0% | inhibition (CHEK2 (human)): 14% | inhibition (CSNK2A1 (human)): 28% | inhibition (DYRK2 (human)): 27% | inhibition (FGFR1 (human)): 25% | inhibition (FLT1 (human)): 38% | inhibition (GCK (human)): 0% | inhibition (IRAK4 (human)): 0% | inhibition (JAK2 JH1 JH2 (human)): 23% | inhibition (MAP2K1 (human)): 11% | inhibition (MAP2K2 (human)): 0% | inhibition (MAP3K9 (human)): 0% | inhibition (MAPK13 (human)): 0% | inhibition (MAPK14 (human)): 0% | inhibition (MAPK15 (human)): 8% | inhibition (MAPK3 (human)): 0% | inhibition (MAPK9 (human)): 5% | inhibition (MAPKAPK3 (human)): 37% | inhibition (MARK1 (human)): 32% | inhibition (MARK4 (human)): 26% | inhibition (PAK6 (human)): 0% | inhibition (PAK7 (human)): 0% | inhibition (PDPK1 (human); ATP 20 µM): 29% | inhibition (PDPK1 (human); ATP 50 µM): 10% | inhibition (PHKG1 (human)): 30% | inhibition (PIM1 (human)): 0% | inhibition (PIM3 (human)): 0% | inhibition (PLK1 (human)): 8% | inhibition (PTK6 (human)): 9% | inhibition (RIPK2 (human)): 0% | inhibition [2]: 0% | inhibition [3]: 0% | inhibition (SRPK1 (human)): 42% | inhibition (STK16 (human)): 3% | inhibition (TBK1 (human)): 7% | inhibition (TTK (human)): 0%

CC(=O)Nc1nc2cnc(-c3ccccc3)cn2n1
inhibition (ABL1 (human)): 48% | inhibition [1]: 22% | inhibition (AURKA (human)): 13% | inhibition (AURKB (human)): 61% | inhibition (BRSK1 (human)): 23% | inhibition (CHEK1 (human)): 18% | inhibition (CHEK2 (human)): 25% | inhibition (CSNK2A1 (human)): 11% | inhibition (DYRK2 (human)): 30% | inhibition (FGFR1 (human)): 45% | inhibition (FLT1 (human)): 69% | inhibition (GCK (human)): 39% | inhibition (IRAK4 (human)): 39% | inhibition (JAK2 JH1 JH2 (human)): 25% | inhibition (MAP2K1 (human)): 34% | inhibition (MAP2K2 (human)): 6% | inhibition (MAP3K9 (human)): 43% | inhibition (MAPK13 (human)): 1% | inhibition (MAPK14 (human)): 10% | inhibition (MAPK15 (human)): 88% | inhibition (MAPK3 (human)): 13% | inhibition (MAPK9 (human)): 1% | inhibition (MAPKAPK3 (human)): 2% | inhibition (MARK1 (human)): 6% | inhibition (MARK4 (human)): 0% | inhibition (PAK6 (human)): 18% | inhibition (PAK7 (human)): 20% | inhibition (PDPK1 (human); ATP 20 µM): 15% | inhibition (PDPK1 (human); ATP 50 µM): 13% | inhibition (PHKG1 (human)): 68% | inhibition (PIM1 (human)): 13% | inhibition (PIM3 (human)): 30% | inhibition (PLK1 (human)): 4% | inhibition (PTK6 (human)): 1% | inhibition (RIPK2 (human)): 29% | inhibition [2]: 5% | inhibition [3]: 16% | inhibition (SRPK1 (human)): 25% | inhibition (STK16 (human)): 0% | inhibition (TBK1 (human)): 31% | inhibition (TTK (human)): 4%

Nc1cnc2c(-c3c(F)cccc3F)cccn2c1=O
inhibition (ABL1 (human)): 40% | inhibition [1]: 68% | inhibition (AURKA (human)): 89% | inhibition (AURKB (human)): 81% | inhibition (BRSK1 (human)): 22% | inhibition (CHEK1 (human)): 0% | inhibition (CHEK2 (human)): 25% | inhibition (CSNK2A1 (human)): 94% | inhibition (DYRK2 (human)): 20% | inhibition (FGFR1 (human)): 88% | inhibition (FLT1 (human)): 72% | inhibition (GCK (human)): 95% | inhibition (IRAK4 (human)): 31% | inhibition (JAK2 JH1 JH2 (human)): 89% | inhibition (MAP2K1 (human)): 72% | inhibition (MAP2K2 (human)): 71% | inhibition (MAP3K9 (human)): 79% | inhibition (MAPK13 (human)): 0% | inhibition (MAPK14 (human)): 0% | inhibition (MAPK15 (human)): 36% | inhibition (MAPK3 (human)): 23% | inhibition (MAPK9 (human)): 17% | inhibition (MAPKAPK3 (human)): 54% | inhibition (MARK1 (human)): 49% | inhibition (MARK4 (human)): 62% | inhibition (PAK6 (human)): 10% | inhibition (PAK7 (human)): 35% | inhibition (PDPK1 (human); ATP 20 µM): 20% | inhibition (PDPK1 (human); ATP 50 µM): 57% | inhibition (PHKG1 (human)): 38% | inhibition (PIM1 (human)): 31% | inhibition (PIM3 (human)): 35% | inhibition (PLK1 (human)): 0% | inhibition (PTK6 (human)): 67% | inhibition (RIPK2 (human)): 3% | inhibition [2]: 0% | inhibition [3]: 0% | inhibition (SRPK1 (human)): 58% | inhibition (STK16 (human)): 3% | inhibition (TBK1 (human)): 23% | inhibition (TTK (human)): 45%
